Test results as given in patent publication US20120283216A1, “FUNGICIDAL 2-(BICYCLIC ARYLOXY)CARBOXAMIDES” (priority 2009, published 2012).

Assays:
Format in all cases: in vivo
Septoria tritici = assay: Test B: wheat leaf blotch, preventive spray on wheat seedlings, visual disease rating; settings: preventive spray at 40 ppm, rated after 48 h + 19 days; for pest or weed control at 40 ppm: Zymoseptoria tritici, 504 h, read-out: Test B disease control rating (100 = 100% disease control, 0 = no disease control relative to the controls)
Source text: (§1) General protocol for preparing test suspensions for Tests A-C: the test compounds were first dissolved in acetone in an amount equal to 11% of the final volume and then suspended at the desired concentration (in ppm) in acetone and purified water (50/50 mix by volume) containing 250 ppm of the surfactant Trem® 014 (polyhydric alcohol esters). The resulting test suspensions were then used in Tests A-C. Spraying a 40 ppm test suspension to the point of run-off on the test plants was the equivalent of a rate of 800 g/ha. The test suspension was sprayed to the point of run-off on wheat seedlings. The following day the seedlings were inoculated with a spore suspension of Septoria tritici (the causal agent of wheat leaf blotch) and incubated in a saturated atmosphere at 20° C. for 48 h, and then moved to a growth chamber at 20° C. for 19 days, after which time disease ratings were visually made. Results for Tests A-C are given in Table A. In the Table, a rating of 100 indicates 100% disease control and a rating of 0 indicates no disease control (relative to the controls). A dash (-) indicates no test results. All results are from applications of 40 ppm.

[1] = tested on: Blumeria graminis f. sp. tritici; assay: Test A: wheat powdery mildew, preventive spray on wheat seedlings, visual disease rating; settings: preventive spray at 40 ppm, rated 8 days after inoculation; for pest or weed control at 40 ppm: Blumeria graminis, 192 h, read-out: Test A disease control rating (100 = 100% disease control, 0 = no disease control relative to the controls)
Source text: as §1, with “spore dust” for “spore suspension”, “of Blumeria graminis f. sp. tritici,” for “of Septoria tritici”, “wheat powdery mildew)” for “wheat leaf blotch)”, “in” for “in a saturated atmosphere at 20° C. for 48 h, and then moved to”, “for 8” for “for 19”

Botrytis cinerea = assay: Test C: tomato botrytis, preventive spray on tomato seedlings, visual disease rating; settings: preventive spray at 40 ppm, rated after 48 h + 3 days; for pest or weed control at 40 ppm: Botrytis cinerea, 120 h, read-out: Test C disease control rating (100 = 100% disease control, 0 = no disease control relative to the controls)
Source text: General protocol for preparing test suspensions for Tests A-C: the test compounds were first dissolved in acetone in an amount equal to 11% of the final volume and then suspended at the desired concentration (in ppm) in acetone and purified water (50/50 mix by volume) containing 250 ppm of the surfactant Trem® 014 (polyhydric alcohol esters). The resulting test suspensions were then used in Tests A-C. Spraying a 40 ppm test suspension to the point of run-off on the test plants was the equivalent of a rate of 800 g/ha.
The test suspension was sprayed to the point of run-off on tomato seedlings. The following day the seedlings were inoculated with a spore suspension of Botrytis cinerea (the causal agent of tomato botrytis) and incubated in saturated atmosphere at 20° C. for 48 h, and then moved to a growth chamber at 27° C. for 3 additional days, after which time disease ratings were visually made.
Results for Tests A-C are given in Table A. In the Table, a rating of 100 indicates 100% disease control and a rating of 0 indicates no disease control (relative to the controls). A dash (-) indicates no test results. All results are from applications of 40 ppm.

Row | SMILES | pest or weed control at 40 ppm (Septoria tritici) [%] | pest or weed control at 40 ppm [1] [%] | pest or weed control at 40 ppm (Botrytis cinerea) [%] | Test B disease control rating (100 = 100% disease control, 0 = no disease control relative to the controls) (Septoria tritici) [%] | Test A disease control rating (100 = 100% disease control, 0 = no disease control relative to the controls) [1] [%] | Test C disease control rating (100 = 100% disease control, 0 = no disease control relative to the controls) (Botrytis cinerea) [%]
1 | CCC(Oc1ccc2ccc(Br)cc2c1)C(=O)NC(C)(C)CO (stereo not drawn) [Compound 16, 2-[(7-bromo-2-naphthalenyl)oxy]-N-(2-hydroxy-1,1-dimethylethyl)-butanamide] | 99 | 97 | 100 |  |  | 
2 | C#CCOc1ccc2ccc(OC(CC)C(=O)NC(C)(C)COC)cc2c1 (stereo not drawn) [Compound 133] |  |  |  | 99 | 74 | 100
3 | C#CCOc1ccc2ccc(OC(CC)C(=O)NC(C)(C)C)cc2c1 (stereo not drawn) [Compound 134] |  |  |  | 100 | 43 | 100
4 | CCc1ccc2ccc(OC(CC)C(=O)NC(C)(C)COC)cc2c1 (stereo not drawn) [Compound 138, 2-[(7-ethyl-2-naphthalenyl)oxy]-N-(2-methoxy-1,1-dimethylethyl)-butanamide] | 83 | 99 | 100 |  |  | 
5 | COCC(C)(C)NC(=O)C(OC)Oc1cnc2ccc(C#C[Si](C)(C)C)cc2c1 (stereo not drawn) [Compound 160] |  |  |  | 99 | 69 | 97
6 | C#Cc1ccc2ncc(OC(OC)C(=O)NC(C)(C)COC)cc2c1 (stereo not drawn) [Compound 162] |  |  |  | 100 | 100 | 100
7 | C#Cc1ccc2ncc(OC(CC)C(=O)NC(C)(C)C#C)cc2c1 (stereo not drawn) [Compound 151] |  |  |  | 100 | 99 | 96
8 | C#CC(C)(C)NC(=O)C(OC)Oc1ccc2ccc(Br)cc2c1 (stereo not drawn) [Compound 94] |  |  |  | 100 | 99 | 100
9 | CCC(Oc1cnc2ccc(F)cc2c1)C(=O)NC1(C#N)CC1 (stereo not drawn) [Compound 46] |  |  |  | 0 | 0 | 0
10 | CCOc1ccc2ccc(OC(CC)C(=O)NC(C)(C)C)cc2c1 (stereo not drawn) [Compound 74, N-(1,1-dimethylethyl)-2-[(7-ethoxy-2-naphthalenyl)oxy]butanamide] | 100 | 100 | 100 |  |  | 
11 | CCC(Oc1ccc2ccc(Br)cc2c1)C(=O)NN(C)C (stereo not drawn) [Compound 9] | 99 | 69 | 99 |  |  | 
12 | C#CCOc1ccc2ccc(OC(OC)C(=O)NC(C)(C)C#C)cc2c1 (stereo not drawn) [Compound 132] |  |  |  | 99 | 13 | 100
13 | C#CC(C)(C)NC(=O)C(OC)Oc1ccc2ccc(OCCC)cc2c1 (stereo not drawn) [Compound 126] |  |  |  | 99 | 72 | 99
14 | CCC(Oc1cnc2ccc(F)cc2c1)C(=O)NC(C)(C)COC (stereo not drawn) [Compound 54] |  |  |  | 71 | 0 | 0
15 | CCC(Oc1ccc2ccc(OC)cc2c1)C(=O)NC(C)(C)C#N (stereo not drawn) [Compound 87] |  |  |  | 100 | 0 | 100
16 | CCC(Oc1ccc2ccc(Br)cc2c1)C(=O)NC(C)(C)CN=CN(C)C (stereo not drawn) [Compound 15, 2-[(7-bromo-2-naphthalenyl)oxy]-N-[2-[[(dimethylamino)methylene]amino]-1,1-dimethylethyl]butanamide] | 100 | 43 | 100 |  |  | 
17 | CC#Cc1ccc2ncc(OC(OC)C(=O)NC(C)(C)C)cc2c1 (stereo not drawn) [Compound 156, N-(1,1-dimethylethyl)-2-methoxy-2-[[6-(1-propyn-1-yl)-3-quinolinyl]oxy]-acetamide] | 96 | 98 | 99 |  |  | 
18 | CCC(Oc1cc2cc(F)ccc2cn1)C(=O)NC(C)(C)C (stereo not drawn) [Compound 66] |  |  |  | 0 | 79 | 88
19 | CCC(Oc1cnc2ccc(I)cc2c1)C(=O)NC(C)(C)COC (stereo not drawn) [Compound 53] |  |  |  | 100 | 99 | 99
20 | COCC(C)(C)NC(=O)C(OC)Oc1ccc2ccc(C#C[Si](C)(C)C)cc2c1 (stereo not drawn) [Compound 105] |  |  |  | 100 | 79 | 90
21 | CCOCC(C)(C)NC(=O)C(CC)Oc1cnc2ccc(I)cc2c1 (stereo not drawn) [Compound 55] |  |  |  | 99 | 96 | 86
22 | CCC(C)(C)NC(=O)C(OC)Oc1ccc2ccc(Br)cc2c1 (stereo not drawn) [Compound 101] |  |  |  | 100 | 92 | 100
23 | C#CC(C)(C)NC(=O)C(OC)Oc1ccc2ccc(OC)cc2c1 (stereo not drawn) [Compound 82] |  |  |  | 99 | 96 | 100
24 | CCOC(Oc1ccc2ccc(OC)cc2c1)C(=O)NC(C)(C)C (stereo not drawn) [Compound 114] | 99 | 90 | 99 |  |  | 
25 | C#CC(C)(C)NC(=O)C(OCC)Oc1ccc2ccc(OCC)cc2c1 (stereo not drawn) [Compound 122] |  |  |  | 100 | 0 | 98
26 | C#CC(C)(C)NC(=S)C(CC)Oc1ccc2ccc(OC)cc2c1 (stereo not drawn) [Compound 164] | 97 | 0 | 99 |  |  | 
